The experiment concerns HA-specific peptide (9-mer). Conditions: mouse, in vivo.

Drawing on patent publication US20080260774A1, “Alpha-galactosyl ceramide analogs and their use as immunotherapies” (priority 2007, published 2008), this text covers IFN-γ secreting cells for one compound.

Turning to `CCCCCCCCCCCCCCCCCCCCCCCCCC(=O)N[C@@H](CO[C@H]1O[C@H](CO)[C@H](O)[C@H](O)[C@H]1O)[C@H](O)[C@H](O)CCCCCCCCCCCCCC` [C1, α-Galactosyl ceramide, reference compound], the IFN-γ secreting cells result is “increased”.
